Test results taken from ChEMBL document CHEMBL3044928, “Synthesis of 2,4-dihalogenofluorobenzenes and their antimicrobial and antifungal activity studies” (2007).
≈ marks a conversion by molar mass, not a printed value. Calls of active or inactive are those of the source. The calls are words filed in the database; no cut-off is given here.

Legend:
Format in all cases: functional
Morganella morganii [1] = test: Antibacterial activity against Morganella morganii clinical isolate at 5 mg/ml after 24 hr by disk diffusion method; conditions: for zone of inhibition at 5000 µg/mL: read-out: DIZ
Candida albicans [2] = test: Antifungal activity against Candida albicans clinical isolate by NCCLS broth microdilution method
Morganella morganii [3] = test: Antibacterial activity against Morganella morganii clinical isolate by NCCLS broth microdilution method
Staphylococcus aureus [4] = test: Antibacterial activity against Staphylococcus aureus ATCC 25923 at 5 mg/ml after 24 hr by disk diffusion method; conditions: for zone of inhibition at 5000 µg/mL: ATCC 25923, 24 h, read-out: DIZ
Micrococcus flavus [5] = test: Antibacterial activity against Micrococcus flavus clinical isolate at 5 mg/ml after 24 hr by disk diffusion method; conditions: read-out: DIZ
Escherichia coli [6] = test: Antibacterial activity against Escherichia coli ATCC 27853 by NCCLS broth microdilution method
Escherichia coli [7] = test: Antibacterial activity against Escherichia coli ATCC 27853 at 5 mg/ml after 24 hr by disk diffusion method; conditions: for zone of inhibition at 5000 µg/mL: read-out: DIZ
Micrococcus flavus [8] = test: Antibacterial activity against Micrococcus flavus clinical isolate by NCCLS broth microdilution method
Candida albicans [9] = test: Antifungal activity against Candida albicans clinical isolate at 5 mg/ml after 48 hr by disk diffusion method; conditions: read-out: DIZ
Bacillus cereus [10] = test: Antibacterial activity against Bacillus cereus ATCC 6633 at 5 mg/ml after 24 hr by disk diffusion method; conditions: ATCC 6633, 24 h, read-out: DIZ
Bacillus cereus [11] = test: Antibacterial activity against Bacillus cereus ATCC 6633 by NCCLS broth microdilution method
Staphylococcus aureus [12] = test: Antibacterial activity against Staphylococcus aureus ATCC 25923 by NCCLS broth microdilution method
Micrococcus flavus [13] = test: Ratio of compound to tetracycline activity against Micrococcus flavus clinical isolate
Candida albicans [14] = test: Ratio of compound to ketoconazole activity against Candida albicans
Bacillus cereus [15] = test: Ratio of compound to oxacillin activity against Bacillus cereus ATCC 6633
Staphylococcus aureus [16] = test: Antibacterial activity against Staphylococcus aureus ATCC 25923 at 10 ug/disc after 24 hr by disk diffusion method; conditions: ATCC 25923, 24 h, read-out: DIZ
Candida albicans [17] = test: Antifungal activity against Candida albicans clinical isolate at 50 ug/disk after 48 hr by disk diffusion method; conditions: read-out: DIZ
Morganella morganii [18] = test: Antibacterial activity against Morganella morganii clinical isolate at 30 ug/disk after 24 hr by disk diffusion method; conditions: read-out: DIZ
Micrococcus flavus [19] = test: Antibacterial activity against Micrococcus flavus clinical isolate at 30 ug/disk after 24 hr by disk diffusion method; conditions: read-out: DIZ
Bacillus cereus [20] = test: Antibacterial activity against Bacillus cereus ATCC 6633 at 1 ug/disk after 24 hr by disk diffusion method; conditions: ATCC 6633, 24 h, read-out: DIZ
Escherichia coli [21] = test: Antibacterial activity against Escherichia coli ATCC 27853 at 10 U/disk after 24 hr by disk diffusion method

Row | MIC (Candida albicans [2]) | MIC (Morganella morganii [3]) | MIC (Escherichia coli [6]) | MIC (Micrococcus flavus [8]) | MIC (Bacillus cereus [11]) | MIC (Staphylococcus aureus [12]) | SMILES | zone of inhibition at 5000 µg/mL (Staphylococcus aureus [4]) | zone of inhibition at 5000 µg/mL (Micrococcus flavus [5]) | zone of inhibition at 5000 µg/mL (Escherichia coli [7]) | zone of inhibition at 5000 µg/mL (Candida albicans [9]) | zone of inhibition at 5000 µg/mL (Bacillus cereus [10]) | other results
1 | 2500 µg/mL (≈ 11.9 mM) | 2500 µg/mL (≈ 11.9 mM) | 3000 µg/mL (≈ 14.3 mM) | 2500 µg/mL (≈ 11.9 mM) | 2000 µg/mL (≈ 9.55 mM) | 2500 µg/mL (≈ 11.9 mM) | Fc1cc(Cl)ccc1Br | 14 mm | 13 mm | 13 mm | 11 mm | 17 mm | diameter of the inhibition zone (DIZ) (Morganella morganii [1]): inactive
2 | 2500 µg/mL (≈ 9.75 mM) | 2500 µg/mL (≈ 9.75 mM) | 2500 µg/mL (≈ 9.75 mM) | 2500 µg/mL (≈ 9.75 mM) | 2000 µg/mL (≈ 7.8 mM) | 2500 µg/mL (≈ 9.75 mM) | Fc1cc(Cl)ccc1I | 12 mm | 11 mm | 11 mm | 14 mm | 13 mm | zone of inhibition at 5000 µg/mL (Morganella morganii [1]): 13 mm
3 | 2500 µg/mL (≈ 11.9 mM) | 2500 µg/mL (≈ 11.9 mM) | 2500 µg/mL (≈ 11.9 mM) | 2500 µg/mL (≈ 11.9 mM) | 2500 µg/mL (≈ 11.9 mM) | 2500 µg/mL (≈ 11.9 mM) | Fc1ccc(Cl)cc1Br |  | 32 mm |  | 30 mm | 15 mm | Ratio (Micrococcus flavus [13]): 2; diameter of the inhibition zone (DIZ) (Morganella morganii [1]): inactive; diameter of the inhibition zone (DIZ) (Staphylococcus aureus [4]): inactive; Ratio (Candida albicans [14]): 2; diameter of the inhibition zone (DIZ) (Escherichia coli [7]): inactive; Ratio (Bacillus cereus [15]): 2
4 |  |  |  |  |  |  | CC1(C)S[C@@H]2[C@H](NC(=O)[C@H](N)c3ccccc3)C(=O)N2[C@H]1C(=O)O [AMPICILLIN] |  |  |  |  |  | zone of inhibition at 10 µg/disc (Staphylococcus aureus [16]): 9 mm
5 |  |  |  |  |  |  | CC(=O)N1CCN(c2ccc(OCC3COC(Cn4ccnc4)(c4ccc(Cl)cc4Cl)O3)cc2)CC1 (stereo unspecified) [KETOCONAZOLE] |  |  |  |  |  | zone of inhibition at 50 µg/disc (Candida albicans [17]): 16 mm
6 | 2000 µg/mL (≈ 12.1 mM) | 2500 µg/mL (≈ 15.2 mM) | 3000 µg/mL (≈ 18.2 mM) | 2500 µg/mL (≈ 15.2 mM) | 2000 µg/mL (≈ 12.1 mM) | 2500 µg/mL (≈ 15.2 mM) | Fc1cc(Cl)ccc1Cl [2,5-DICHLOROFLUOROBENZENE] | 15 mm | 14 mm | 11 mm | 17 mm | 16 mm | zone of inhibition at 5000 µg/mL (Morganella morganii [1]): 12 mm
7 |  |  |  |  |  |  | O=C(N[C@H](CO)[C@H](O)c1ccc([N+](=O)[O-])cc1)C(Cl)Cl [CHLORAMPHENICOL] |  |  |  |  |  | zone of inhibition at 30 µg/disc (Morganella morganii [18]): 15 mm
8 |  |  |  |  |  |  | CN(C)[C@@H]1C(O)=C(C(N)=O)C(=O)[C@@]2(O)C(O)=C3C(=O)c4c(O)cccc4[C@@](C)(O)[C@H]3C[C@@H]12 [TETRACYCLINE] |  |  |  |  |  | zone of inhibition at 30 µg/disc (Micrococcus flavus [19]): 20 mm
9 |  |  |  |  |  |  | Cc1onc(-c2ccccc2)c1C(=O)N[C@@H]1C(=O)N2[C@@H]1SC(C)(C)[C@@H]2C(=O)O [OXACILLIN] |  |  |  |  |  | zone of inhibition at 1 µg/disc (Bacillus cereus [20]): 9 mm
10 | 2500 µg/mL (≈ 9.75 mM) | 1500 µg/mL (≈ 5.85 mM) | 3000 µg/mL (≈ 11.7 mM) | 1500 µg/mL (≈ 5.85 mM) | 2000 µg/mL (≈ 7.8 mM) | 2000 µg/mL (≈ 7.8 mM) | Fc1ccc(Cl)cc1I | 13 mm | 20 mm | 10 mm | 14 mm | 16 mm | zone of inhibition at 5000 µg/mL (Morganella morganii [1]): 10 mm
11 |  |  |  |  |  |  | CC1(C)S[C@@H]2[C@H](NC(=O)Cc3ccccc3)C(=O)N2[C@H]1C(=O)O [PENICILLIN G] |  |  |  |  |  | diameter of the inhibition zone (DIZ) (Escherichia coli [21]): 19 mm

Row | SMILES | MIC (Candida albicans [2]) | MIC (Morganella morganii [3]) | MIC (Escherichia coli [6]) | MIC (Micrococcus flavus [8]) | MIC (Bacillus cereus [11]) | MIC (Staphylococcus aureus [12]) | zone of inhibition at 5000 µg/mL (Staphylococcus aureus [4]) | zone of inhibition at 5000 µg/mL (Micrococcus flavus [5]) | zone of inhibition at 5000 µg/mL (Escherichia coli [7]) | zone of inhibition at 5000 µg/mL (Candida albicans [9]) | zone of inhibition at 5000 µg/mL (Bacillus cereus [10]) | other results
12 | Fc1ccc(Cl)cc1Cl [2,4-DICHLOROFLUOROBENZENE] | 1 µg/mL (≈ 0.00606 mM) | 1500 µg/mL (≈ 9.09 mM) | 1200 µg/mL (≈ 7.27 mM) | 1500 µg/mL (≈ 9.09 mM) | 1500 µg/mL (≈ 9.09 mM) | 1200 µg/mL (≈ 7.27 mM) | 15 mm | 11 mm | 12 mm | 12 mm | 19 mm | diameter of the inhibition zone (DIZ) (Morganella morganii [1]): inactive
